Results from EP1285920A1, “C10 Ester sustituted taxanes as antitumor agents” (Florida State University Research Foundation, Inc., priority 2001, dated 2003).

Tested on: SKMES lung carcinoma
Assay: In vivo evaluation of compound 0503 against SKMES human lung carcinoma xenograft, i.v. dose range (Example 20)
Conditions: for % Total Response: complete or partial responses among evaluable animals; for MDS (n): mean days of survival until neoplasm reached 2.0 g, 6 mice, terminated Day 60; for survival extension / MDS: other mice; for MDS: tumor 2.0 g
Description: The antitumor compound was prepared in a vehicle of 10% ethanol and 90% Liposyn III in the manner as described for Emulsion 3 of Example 9.
Treatment groups consisted of: vehicle only (Group 1), and antitumor compound 0503 (dosages of 104 mg/kg, 72.8 mg/kg, 41.6 mg/kg, and 10.4 mg/kg; Groups 2-5, respectively).

[1] = 10.4 mg/kg, single IV bolus Day 1
[2] = 10.4 mg/kg, single IV bolus Day 1, number of mice of 6, Day 60
[3] = 41.6 mg/kg, single IV bolus Day 1
[4] = 41.6 mg/kg, single IV bolus Day 1, number of mice of 6, Day 60
[5] = 72.8 mg/kg, single IV bolus Day 1
[6] = 72.8 mg/kg, single IV bolus Day 1, number of mice of 6, Day 60
[7] = 104 mg/kg, single IV bolus Day 1
[8] = 104 mg/kg, single IV bolus Day 1, number of mice of 6, Day 60
[9] = SKMES, 72.8 mg/kg single IV bolus (Group 3)
[10] = SKMES, 72.8 mg/kg single IV bolus (Group 3), six mice
[11] = SKMES, 104 mg/kg single IV bolus (Group 2)

## CCC(=O)O[C@H]1C(=O)[C@@]2(C)[C@H]([C@H](OC(=O)c3ccccc3)[C@]3(O)C[C@H](OC(=O)[C@H](O)[C@@H](NC(=O)OC(C)(C)C)c4ccccn4)C(C)=C1C3(C)C)[C@]1(OC(C)=O)CO[C@@H]1C[C@@H]2O [Compound 0503]
[1]
  % Total Response: 0%
  MDS (n): 26.0 ± 2.5 (6) days
10.4 mg/kg, single IV bolus Day 1, number of mice of 6
  Toxic Deaths: 0
[2]
  Partial Response: 0
  Stable Disease: 0
  Survivors: 0
[3]
  % Total Response: 0%
  MDS (n): 33.8 ± 3.4 (5) days
41.6 mg/kg, single IV bolus Day 1, number of mice of 6
  Toxic Deaths: 0
[4]
  Partial Response: 0
  Stable Disease: 1
  Survivors: 1
[5]
  % Total Response: 33.3%
  MDS (n): 37.4 ± 5.2 (4) days
72.8 mg/kg, single IV bolus Day 1, number of mice of 6
  Toxic Deaths: 0
[6]
  Partial Response: 1
  Stable Disease: 0
  Survivors: 2
[7]
  % Total Response: 50.0%
  MDS (n): 46.6 ± 3.2 (3) days
104 mg/kg, single IV bolus Day 1, number of mice of 6
  Toxic Deaths: 0
[8]
  Partial Response: 0
  Stable Disease: 0
  Survivors: 3
[9]
  survival extension: 114%
  MDS: 37.4 days
[10]
  Complete Response: One
  Partial Response: one
SKMES, 104 mg/kg single IV bolus (Group 2), 10% ethanol, 90% Liposyn III, six mice
  complete tumor regressions: Three
[11]
  survival extension: 167%
  MDS: 46.6 days
